In US20240246903A1, “INDANONE AND TETRALONEKETO OR HYDROXYL OXIMES AS CANCEL THERAPEUTICS” (Board of Regents, The University of Texas System, priority 2021, published 2024):

System: GBM cells
Assay: GBM cell viability (MTT assay)
Type: cell-based
Details: FIG. 3, read-out: concentration that reduces cell viability by 50%
Method: To assess, the antitumor activity of the new ERβ agonist compounds, GBM cells were assessed for viability using a commercially available MTT assay. Briefly, the assay determines the number of viable cells in culture by […], which indicates the presence of metabolically active cells. Previously described agonists such as LY was able to reduce viability by 50% with concentration of 10 μM or greater. The new compounds described in this disclosure have higher potency than existing compounds and some reduce cell viability by 50% at concentrations even at 3 μM (FIG. 3).

Oc1ccc([C@@H]2Oc3ccc(O)cc3[C@@H]3CCC[C@@H]32)cc1 [LY, (3aS,4R,9bR)-4-(4-hydroxyphenyl)-1,2,3,3a,4,9b-hexahydrocyclopenta[c]chromen-8-ol]
IC50: ≥ 10 µM
